Assay results as given in patent US20220282217A1, “COMPOSITIONS AND METHODS FOR PREPARING T CELL COMPOSITIONS AND USES THEREOF” (priority 2019, published 2022).
Where a SMILES comes first, the peptide text is derived from it.

molecular target: HLA-A02.01 (Homo sapiens, UniProt P04439, D140Y/D185E/D98H/E176V/E277Q/G131W/G231S/I119V/I121R/I166T/I218V/L300P/L318F/N151K/N90K/P208A/P217A/Q86G/Q94H/R138H/R169H/T345S); assay: Class I MHC peptide binding affinity (displacement of radiolabeled reference peptide); conditions: Observed Affinity (IC50; (nM)), allele A02.01
In short: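 Steps: form MHCI complexes carrying labeled reference peptide; add competitor peptides at graded doses; incubate 2 days; separate complex-bound from free label by size-exclusion chromatography and count what remains bound.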

Row | SMILES | IC50
1 | CC[C@H](C)[C@H](N)C(=O)N[C@H](C(=O)N[C@H](C(=O)N[C@@H](CCC(=O)O)C(=O)N[C@@H](Cc1ccccc1)C(=O)N[C@@H](CCSC)C(=O)N[C@H](C(=O)N[C@@H](Cc1ccc(O)cc1)C(=O)NCC(=O)N[C@@H](CC(N)=O)C(=O)O)[C@@H](C)O)[C@@H](C)CC)[C@@H](C)CC | 1550 nM

same assay, conditions: allele A02.01; read-out: Observed Affinity (IC50; (nM))

Row | IC50 | SMILES
2 | 2.8 nM | CC(C)C[C@H](NC(=O)[C@@H]1CCCN1C(=O)[C@@H]1CCCN1C(=O)[C@@H](NC(=O)[C@H](CC(=O)O)NC(=O)[C@H](CCC(=O)O)NC(=O)[C@@H]1CCCN1C(=O)[C@H](CC(C)C)NC(=O)[C@@H](N)CC(C)C)[C@@H](C)O)C(=O)O (H-LLPEDTPPL-OH; N-terminus and C-terminus assumed)
3 | 14 nM | CC(C)C[C@H](NC(=O)[C@H](C)N)C(=O)N[C@@H](CC(N)=O)C(=O)N[C@@H](CO)C(=O)N[C@@H](CCC(=O)O)C(=O)N[C@@H](C)C(=O)N[C@@H](CC(C)C)C(=O)N[C@@H](CO)C(=O)N[C@H](C(=O)O)C(C)C (H-ALNSEALSV-OH)
4 | 12000 nM | CSCC[C@H](NC(=O)[C@H](CCC(=O)O)NC(=O)[C@H](CC(C)C)NC(=O)[C@H](CC(C)C)NC(=O)[C@H](CC(C)C)NC(=O)[C@H](CC(=O)O)NC(=O)[C@H](CC(N)=O)NC(=O)[C@H](CC(C)C)NC(=O)[C@@H]1CCCN1)C(=O)N[C@@H](CC(C)C)C(=O)O (H-PLNDLLLEML-OH; N-terminus and C-terminus assumed)
5 | 1400 nM | CC[C@H](C)[C@H](NC(=O)[C@@H](N)CCCCN)C(=O)N[C@H](C(=O)N[C@@H](CCC(=O)O)C(=O)N[C@@H](CCC(N)=O)C(=O)N[C@@H](CCC(=O)O)C(=O)N[C@@H](CCCCN)C(=O)N[C@@H](CC(=O)O)C(=O)N[C@@H](Cc1ccccc1)C(=O)N[C@@H](CC(C)C)C(=O)O)[C@@H](C)O (H-KITEQEKDFL-OH; N-terminus and C-terminus assumed)
6 | 2060 nM | CC[C@H](C)[C@H](NC(=O)[C@@H](NC(=O)[C@H](CC(C)C)NC(=O)[C@@H](N)Cc1ccc(O)cc1)C(C)C)C(=O)N[C@@H](CCC(N)=O)C(=O)N[C@@H](CC(C)C)C(=O)N[C@@H](CCC(N)=O)C(=O)N[C@@H](CC(=O)O)C(=O)N[C@@H](CCCCN)C(=O)N[C@@H](Cc1ccccc1)C(=O)O (H-YLVIQLQDKF-OH)
7 | 118 nM | CC(C)C[C@H](NC(=O)[C@H](CS)NC(=O)[C@H](Cc1c[nH]c2ccccc12)NC(=O)[C@H](CC(C)C)NC(=O)[C@H](CO)NC(=O)[C@H](CO)NC(=O)[C@H](CCCNC(=N)N)NC(=O)[C@H](CCC(N)=O)NC(=O)[C@H](CC(C)C)NC(=O)[C@@H](N)[C@@H](C)O)C(=O)O (H-TLQRSSLWCL-OH; N-terminus and C-terminus assumed)

Row | SMILES | IC50
8 | CC(C)C[C@H](NC(=O)[C@@H](N)C(C)C)C(=O)N[C@@H](CCC(N)=O)C(=O)N[C@@H](CCCNC(=N)N)C(=O)N[C@@H](Cc1ccccc1)C(=O)N[C@@H](CCCNC(=N)N)C(=O)N[C@@H](Cc1ccccc1)C(=O)N[C@H](C(=O)N[C@@H](Cc1c[nH]cn1)C(=O)N[C@H](C(=O)O)C(C)C)[C@@H](C)O | 107 nM
9 | CC[C@H](C)[C@H](NC(=O)[C@H](CC(C)C)NC(=O)[C@@H]1CCCN1C(=O)[C@H](Cc1ccccc1)NC(=O)[C@H](CC(C)C)NC(=O)[C@@H](N)CCC(=O)O)C(=O)N[C@@H](Cc1ccccc1)C(=O)N1CCC[C@H]1C(=O)N[C@@H](C)C(=O)O | 13 nM

molecular target: T1, HLA-A02.01 (Homo sapiens, UniProt P04439, D140Y/D185E/D98H/E176V/E277Q/G131W/G231S/I119V/I121R/I166T/I218V/N151K/N90K/P208A/P217A/Q86G/Q94H/R138H/R169H); assay: Class I MHC peptide binding stability (pMHC-I dissociation, 125I-labeled light chain); conditions: HLA Allele A02.01; time for half of the complexes to dissociate at 37° C.
T1 construct: made in house; host or cells: E. coli

Row | SMILES | Measured stability
10 | CC(C)C[C@H](N)C(=O)N[C@H](C(=O)N[C@H](C(=O)N[C@H](C(=O)NCC(=O)N[C@@H](C)C(=O)N[C@H](C(=O)NCC(=O)N[C@H](C(=O)O)C(C)C)C(C)C)C(C)C)C(C)C)C(C)C | 0.6 h

same assay, conditions: allele A02.01

Row | SMILES | Stability (T1/2 (h))
11 | CSCC[C@H](NC(=O)[C@H](CS)NC(=O)[C@H](CO)NC(=O)[C@H](CO)NC(=O)[C@H](CC(N)=O)NC(=O)[C@H](CS)NC(=O)[C@H](CCSC)NC(=O)[C@@H](N)Cc1ccc(O)cc1)C(=O)NCC(=O)N[C@@H](CO)C(=O)O (H-YMCNSSCMGS-OH; N-terminus and C-terminus assumed) | 0.8 h
12 | CC(C)C[C@H](N)C(=O)N[C@H](C(=O)N[C@H](C(=O)N[C@H](C(=O)NCC(=O)N[C@@H](C)C(=O)N[C@H](C(=O)NCC(=O)N[C@H](C(=O)O)C(C)C)C(C)C)C(C)C)C(C)C)C(C)C | 0.6 h
